Experimental data as given in US9302999B2, “Substituted triazoles as herbicides” (E. I. DU PONT DE NEMOURS AND COMPANY, priority 2012, dated 2016).

Columns and labels:
Type in all cases: in vivo
[1] = tested on: ducksalad (Heteranthera limosa); assay: Test C flooded paddy test: ducksalad; settings: Flood (flooded paddy test), visual rating after 13 to 15 days, scale 0 to 100 (0 no effect, 100 complete control)
Outline: (§1)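 Rating: visual, 0–100 (100 = complete control), versus untreated controls after 13 to 15 greenhouse days. Treatment went into paddy water held at 3 cm over the soil, on plants grown to two leaves.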

[2] = tested on: crabgrass, large (large crabgrass, Digitaria sanguinalis); assay: Test A pre-/postemergence: crabgrass, large; settings: for Crabgrass, Large plant response rating: Postemergence; for Plant response rating, Crabgrass, Large: Preemergence
Outline: (§2)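 Seeds were sown in loam/sand blend and sprayed preemergence (directed soil spray) and, simultaneously, postemergence at 2–10 cm, one- to two-leaf stage, using compounds in non-phytotoxic solvent with surfactant. After ~10 days in greenhouse, injury was rated visually versus untreated controls, 0 (no effect) to 100 (complete control).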

[3] = tested on: pigweed (Amaranthus retroflexus); assay: Test A pre-/postemergence: pigweed; settings: for Pigweed plant response rating: Postemergence; for Plant response rating, Pigweed: Preemergence
Outline: as §2

[4] = tested on: barnyardgrass (Echinochloa crus-galli); assay: Test A pre-/postemergence: barnyardgrass; settings: for Barnyardgrass plant response rating: Postemergence; for Plant response rating, Barnyardgrass: Preemergence
Outline: as §2

[5] = tested on: wheat (Triticum aestivum); assay: Test A pre-/postemergence: wheat; settings: for Wheat plant response rating: Postemergence; for Plant response rating, Wheat: Preemergence
Outline: as §2

[6] = tested on: morningglory (Ipomoea spp.); assay: Test A pre-/postemergence: morningglory; settings: for Morningglory plant response rating: Postemergence; for Plant response rating, Morningglory: Preemergence
Outline: as §2

[7] = tested on: foxtail, giant (giant foxtail, Setaria faberii); assay: Test A pre-/postemergence: foxtail, giant; settings: for Foxtail, Giant plant response rating: Postemergence; for Plant response rating, Foxtail, Giant: Preemergence
Outline: as §2

[8] = tested on: sedge, umbrella (small-flower umbrella sedge, Cyperus difformis); assay: Test C flooded paddy test: sedge, umbrella; settings: Flood (flooded paddy test), visual rating after 13 to 15 days, scale 0 to 100 (0 no effect, 100 complete control)
Outline: as §1

[9] = tested on: barnyardgrass (Echinochloa crus-galli); assay: Test C flooded paddy test: barnyardgrass; settings: Flood (flooded paddy test), visual rating after 13 to 15 days, scale 0 to 100 (0 no effect, 100 complete control)
Description: Plant species in the flooded paddy test consisted of rice (Oryza sativa), sedge, umbrella (small-flower umbrella sedge, Cyperus difformis), ducksalad (Heteranthera limosa) and barnyardgrass (Echinochloa crus-galli) grown to the 2-leaf stage for testing. At time of treatment, test pots were flooded to 3 cm above the soil surface, treated by application of test compounds directly to the paddy water, and then maintained at that water depth for the duration of the test.
Treated plants and controls were maintained in a greenhouse for 13 to 15 days, after which time all species were compared to controls and visually evaluated. Plant response ratings, summarized in Table C, are based on a scale of 0 to 100 where 0 is no effect and 100 is complete control. A dash (-) response means no test result.

[10] = tested on: velvetleaf (Abutilon theophrasti); assay: Test A pre-/postemergence: velvetleaf; settings: for Velvetleaf plant response rating: Postemergence; for Plant response rating, Velvetleaf: Preemergence
Outline: as §2

rice (Oryza sativa) = assay: Test C flooded paddy test: rice; settings: Flood (flooded paddy test), visual rating after 13 to 15 days, scale 0 to 100 (0 no effect, 100 complete control)
Outline: as §1

corn (Zea mays) = assay: Test A pre-/postemergence: corn; settings: for Corn plant response rating: Postemergence; for Plant response rating, Corn: Preemergence
Outline: as §2

[11] = 125 g ai/ha, 0 to 100 scale, 0 is no effect, 100 is complete control
[12] = 500 g ai/ha, visual rating on 0 to 100 scale (0 no effect, 100 complete control), approximately ten days
[13] = 125 g ai/ha, 0 to 100 scale (0 no effect, 100 complete control)
[14] = 500 g ai/ha, 0 to 100 scale, 0 is no effect, 100 is complete control

Structure (SMILES)	Plant response rating, Ducksalad ([1]; 62 g ai/ha)	Plant response rating, Ducksalad ([1]; 250 g ai/ha)	Crabgrass, Large plant response rating [2, 11]	Crabgrass, Large plant response rating [2, 12]	Plant response rating, Crabgrass, Large [2, 13]	Plant response rating, Crabgrass, Large [2, 14]	Pigweed plant response rating [3, 11]	Pigweed plant response rating [3, 12]	Plant response rating, Pigweed [3, 13]	Plant response rating, Pigweed [3, 14]	Barnyardgrass plant response rating [4, 11]	Barnyardgrass plant response rating [4, 12]	Plant response rating, Barnyardgrass [4, 13]	Plant response rating, Barnyardgrass [4, 14]	Wheat plant response rating [5, 11]	Wheat plant response rating [5, 12]	Plant response rating, Wheat [5, 13]	Plant response rating, Wheat [5, 14]	Morningglory plant response rating [6, 11]	Morningglory plant response rating [6, 12]	also measured
Cc1nn(-c2ccc(C(F)(F)F)cc2)nc1Cn1cc(C(F)(F)F)nc1Cl [Compound 9]	0	0	60	70	90	100	90	100	90	100	50	60	30	70	0	20	0	0	70	100	Plant response rating, Morningglory [6, 13]: 50; Plant response rating, Morningglory [6, 14]: 60; Foxtail, Giant plant response rating [7, 11]: 50; Foxtail, Giant plant response rating [7, 12]: 70; Plant response rating, Foxtail, Giant [7, 13]: 80; Plant response rating, Foxtail, Giant [7, 14]: 90; Plant response rating, Sedge, Umbrella ([8]; 62 g ai/ha): 40; Plant response rating, Sedge, Umbrella ([8]; 250 g ai/ha): 85; Plant response rating, Barnyardgrass ([9]; 62 g ai/ha): 0; Plant response rating, Barnyardgrass ([9]; 250 g ai/ha): 30; Velvetleaf plant response rating [10, 11]: 60; Velvetleaf plant response rating [10, 12]: 80; Plant response rating, Velvetleaf [10, 13]: 30; Plant response rating, Velvetleaf [10, 14]: 50; Plant response rating, Rice (rice (Oryza sativa); 62 g ai/ha): 0; Plant response rating, Rice (rice (Oryza sativa); 250 g ai/ha): 0; Corn plant response rating (corn (Zea mays); [11]): 20; Corn plant response rating (corn (Zea mays); [12]): 30; Plant response rating, Corn (corn (Zea mays); [13]): 0; Plant response rating, Corn (corn (Zea mays); [14]): 10
CCc1nn(-c2ccc(F)cc2)nc1Cn1ccc(C(F)(F)C(F)(F)F)n1 [Compound 10]	0	0	40	60	40	90	70	100	60	80	20	50	0	10	0	10	0	0	100	100	Plant response rating, Morningglory [6, 13]: 0; Plant response rating, Morningglory [6, 14]: 10; Foxtail, Giant plant response rating [7, 11]: 20; Foxtail, Giant plant response rating [7, 12]: 50; Plant response rating, Foxtail, Giant [7, 13]: 20; Plant response rating, Foxtail, Giant [7, 14]: 80; Plant response rating, Sedge, Umbrella ([8]; 62 g ai/ha): 0; Plant response rating, Sedge, Umbrella ([8]; 250 g ai/ha): 0; Plant response rating, Barnyardgrass ([9]; 62 g ai/ha): 0; Plant response rating, Barnyardgrass ([9]; 250 g ai/ha): 0; Velvetleaf plant response rating [10, 11]: 40; Velvetleaf plant response rating [10, 12]: 50; Plant response rating, Velvetleaf [10, 13]: 0; Plant response rating, Velvetleaf [10, 14]: 20; Plant response rating, Rice (rice (Oryza sativa); 62 g ai/ha): 0; Plant response rating, Rice (rice (Oryza sativa); 250 g ai/ha): 0; Corn plant response rating (corn (Zea mays); [11]): 20; Corn plant response rating (corn (Zea mays); [12]): 20; Plant response rating, Corn (corn (Zea mays); [13]): 0; Plant response rating, Corn (corn (Zea mays); [14]): 0
Cc1nn(-c2ccc(C(F)(F)F)cc2)nc1Cn1c(Cl)nc(C(F)(F)F)c1Cl [Compound 11]	0	0	0	0	0	0	0	20	0	0	0	0	0	0	0	0	0	0	0	0	Plant response rating, Morningglory [6, 13]: 0; Plant response rating, Morningglory [6, 14]: 0; Foxtail, Giant plant response rating [7, 11]: 0; Foxtail, Giant plant response rating [7, 12]: 0; Plant response rating, Foxtail, Giant [7, 13]: 0; Plant response rating, Foxtail, Giant [7, 14]: 0; Plant response rating, Sedge, Umbrella ([8]; 62 g ai/ha): 0; Plant response rating, Sedge, Umbrella ([8]; 250 g ai/ha): 0; Plant response rating, Barnyardgrass ([9]; 62 g ai/ha): 0; Plant response rating, Barnyardgrass ([9]; 250 g ai/ha): 0; Velvetleaf plant response rating [10, 11]: 0; Velvetleaf plant response rating [10, 12]: 0; Plant response rating, Velvetleaf [10, 13]: 0; Plant response rating, Velvetleaf [10, 14]: 0; Plant response rating, Rice (rice (Oryza sativa); 62 g ai/ha): 0; Plant response rating, Rice (rice (Oryza sativa); 250 g ai/ha): 0; Corn plant response rating (corn (Zea mays); [11]): 0; Corn plant response rating (corn (Zea mays); [12]): 0; Plant response rating, Corn (corn (Zea mays); [13]): 0; Plant response rating, Corn (corn (Zea mays); [14]): 0
Cc1nn(-c2ccc(C(F)(F)F)cc2)nc1Cn1cnc(C(F)(F)F)c1Cl [Compound 13]	0	0	0	0	0	0	0	0	0	0	0	0	0	0	0	0	0	0	10	10	Plant response rating, Morningglory [6, 13]: 0; Plant response rating, Morningglory [6, 14]: 0; Foxtail, Giant plant response rating [7, 11]: 0; Foxtail, Giant plant response rating [7, 12]: 10; Plant response rating, Foxtail, Giant [7, 13]: 0; Plant response rating, Foxtail, Giant [7, 14]: 0; Plant response rating, Sedge, Umbrella ([8]; 62 g ai/ha): 0; Plant response rating, Sedge, Umbrella ([8]; 250 g ai/ha): 0; Plant response rating, Barnyardgrass ([9]; 62 g ai/ha): 0; Plant response rating, Barnyardgrass ([9]; 250 g ai/ha): 0; Velvetleaf plant response rating [10, 11]: 0; Velvetleaf plant response rating [10, 12]: 0; Plant response rating, Velvetleaf [10, 13]: 0; Plant response rating, Velvetleaf [10, 14]: 0; Plant response rating, Rice (rice (Oryza sativa); 62 g ai/ha): 0; Plant response rating, Rice (rice (Oryza sativa); 250 g ai/ha): 0; Corn plant response rating (corn (Zea mays); [11]): 0; Corn plant response rating (corn (Zea mays); [12]): 0; Plant response rating, Corn (corn (Zea mays); [13]): 0; Plant response rating, Corn (corn (Zea mays); [14]): 0
